By IC50 is commonly meant the concentration that inhibits the measured activity by half.

One compound from PMC7866863, “A Cellular Assay for the Identification and Characterization of Connexin Gap Junction Modulators” (International Journal of Molecular Sciences, 2021) can be followed below.

The assay deals with T1, Cx43 (connexin 43 gap junction) (Mus musculus, UniProt P23242).
T1 construct: gene Gja1; mouse Cx43 coding region, recombinantly expressed in HeLa donor and biosensor cells
The assay can be described thus: HeLa coculture cAMP-transfer GloSensor luminescence assay for Cx43 gap junctions. The assay is classed as cell-based.

T1 sequence (P23242 2-382): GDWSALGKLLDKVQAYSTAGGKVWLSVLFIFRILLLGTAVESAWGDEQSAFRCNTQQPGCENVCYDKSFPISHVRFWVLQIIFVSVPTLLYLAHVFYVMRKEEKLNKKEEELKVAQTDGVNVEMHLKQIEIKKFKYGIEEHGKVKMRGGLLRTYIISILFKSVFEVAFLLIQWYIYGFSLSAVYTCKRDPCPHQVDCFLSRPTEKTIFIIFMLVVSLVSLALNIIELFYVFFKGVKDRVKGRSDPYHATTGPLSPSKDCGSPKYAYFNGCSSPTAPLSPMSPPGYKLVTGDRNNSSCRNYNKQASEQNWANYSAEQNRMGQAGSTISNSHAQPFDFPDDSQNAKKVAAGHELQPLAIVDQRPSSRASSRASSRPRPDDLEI

On to `CC1(C)[C@@H](OC(=O)CCC(=O)O)CC[C@]2(C)[C@H]3C(=O)C=C4[C@@H]5C[C@@](C)(C(=O)O)CC[C@]5(C)CC[C@@]4(C)[C@]3(C)CC[C@@H]12` [carbenoxolone], for which half-maximal inhibition (IC50) required 44.5 ± 4.8 µM.
